In assay [1] the test system is Micrococcus luteus. Description: Antibacterial activity against Micrococcus luteus KCTC 1915. The format is functional.
Assay [2] has as its system Staphylococcus aureus. Nature of the assay: Antibacterial activity against Staphylococcus aureus KCTC 1927. Format: functional.
Assay [3] deals with Bacillus subtilis. Nature of the assay: Antibacterial activity against Bacillus subtilis KCTC 1021. Format: functional.
Assay [4] relates to Salmonella typhimurium. Description: Antibacterial activity against Salmonella typhimurium KCTC 2515. Particulars: Salmonella enterica. Format: functional, Salmonella enterica subsp. enterica serovar Typhimurium.
The subject of assay [5] is Klebsiella pneumoniae. Nature of the assay: Antibacterial activity against Klebsiella pneumoniae KCTC 2690. The format is functional.
Assay [6] relates to Escherichia coli. Description: Antibacterial activity against Escherichia coli KCTC 2441. The format is functional.
Assay [7] has as its system RAW264.7. Nature of the assay: Antiinflammatory activity in mouse RAW264.7 cells. Format: functional, cell-based.

Active and inactive are the calls of the source. The calls are words filed in the database; no cut-off is given here.

Usually MIC stands for the lowest concentration found to suppress growth. Low readings indicate greater potency, high ones weaker potency.

`CCCCCCCCCCC/C=C\CCC[C@H](C)[C@H]1OC[C@H](CO)O1`: the minimum inhibitory concentration (MIC) in assay [1], in assay [2], in assay [3], in assay [4], in assay [5] and in assay [6] was above 128 µg/mL each time. Moreover, the outcome in assay [7] was inactive.
`CCCCCCCCCC/C=C\C/C=C\CCC[C@H](C)[C@H]1OC[C@H](CO)O1`: the MIC in assay [1], in assay [2], in assay [3], in assay [4], in assay [5] and in assay [6] was above 128 µg/mL in each case. Moreover, the result in assay [7] was inactive.
Consider `CCCCCCCCC/C=C\C/C=C\CCC[C@H](C)[C@H]1OC[C@H](CO)O1`, for which the MIC in assay [1], in assay [2], in assay [3], in assay [4], in assay [5] and in assay [6] was above 128 µg/mL in each case. Moreover, the outcome in assay [7] was inactive.
`CCCCCCCCCCC/C=C\C=C\C(O)CC[C@H](C)[C@H]1OC[C@H](CO)O1` (stereo not given in full): the minimal inhibitory concentration (MIC) in assay [1], in assay [2], in assay [3], in assay [4], in assay [5] and in assay [6] was above 128 µg/mL throughout. In assay [7], the result was inactive.
In the case of `CCCCCCCC/C=C\C/C=C\CCC[C@H](C)[C@H]1OC[C@H](CO)O1`, the minimal inhibitory concentration (MIC) in assay [1], in assay [2], in assay [3], in assay [4], in assay [5] and in assay [6] was above 128 µg/mL throughout. Also, the outcome in assay [7] was inactive.

The values are drawn from ChEMBL document CHEMBL5584286, “Structure Determination of 1,3-Dioxolane-Containing Lipids from the Marine Sponge Leucetta sp. Using Chiral 1H NMR Analysis of Model Systems” (2024).
